In ChEMBL document CHEMBL2150879, “Novel indolethylbenzamides for the treatment of tauopathies: patent highlight” (ACS Med Chem Lett, 2012):

Test: Inhibition of Tau P301L mutant-mediated cytotoxicity in human M17 cells by LDH assay
Assay type: cell-based

O=C(NCCc1c[nH]c2ccc(Cl)cc12)c1cccc(Cc2ccccc2)c1
EC50: 78 nM

O=C(NCCc1c[nH]c2ccc(F)cc12)c1ccc(Cn2ccnc2)cc1
EC50: 486 nM

O=C(NCCc1c[nH]c2ccc(Cl)cc12)c1cccc(Nc2ccccc2)c1
EC50: 94 nM

N#Cc1ccc(Cc2ccc(C(=O)NCCc3c[nH]c4ccc(Cl)cc34)cc2)cc1
EC50: 16 nM

N#Cc1cccc(Cc2ccc(C(=O)NCCc3c[nH]c4ccc(Cl)cc34)cc2)c1
EC50: 14 nM

O=C(NCCc1c[nH]c2ccc(Cl)cc12)c1ccc(Cc2cccc(Cl)c2)cc1
EC50: 7 nM

O=C(NCCc1c[nH]c2ccc(Cl)cc12)c1ccc(Cc2cccc(F)c2)cc1
EC50: 13 nM

COc1ccc(Cc2ccc(C(=O)NCCc3c[nH]c4ccc(Cl)cc34)cc2)cc1
EC50: 147 nM

O=C(NCCc1c[nH]c2ccc(Cl)cc12)c1cccc(Cc2cncc(F)c2)c1
EC50: 90 nM
